# Measured values from patent publication US5118681A (priority 1989, dated 1992).
# Where two headings read alike, the source gives them in different places.
# Tests used:
# ps.fl bacteria = experiment: Speed of Kill (SOK) test, 4 h, synthetic hard water (Table 3); format: cell-based; details: Pseudomonas fluorescens, read-out: SOK (concentration at which compound killed >99.999% of the cells)
# Excerpt: The Speed of Kill (SOK) Test measures the loss of cell viability in an aqueous suspension of bacterial cells during a four hour period when these cells are contacted with a defined concentration of the test compound in synthetic hard water (SHW). A stock solution or dispersion of the test compound, typically at a concentration of 1%, is made in a 5:3:2 solvent solution of acetone, methanol, and water. The SHW is made by taking one liter of sterile deionized water and adding the following solutions to it:
# 1. 2 ml of a solution of 31.74 g of MgCl2 and 73.99 g of CaCl2 in 1000 ml of sterile distilled water which has been heat sterillized.
# 2. 4 ml of a solution of 56.03 g of NaHCO3 in 1000 ml of water which has been filter sterillized.
# The combined solution is then filter sterilized to yield the SHW. A volume of the stock solution is dispensed into the SHW to give an initial test compound starting concentration of 500 ppm.
# (§1) When the test is ready to be run, each vessel in the dilution series, except the first vessel, contains an equal volume of the SHW mixture with the test compound. The first vessel contains twice the volume of SHW with the starting concentration of test compound. One half of the SHW from the first vessel is transferred to the second vessel. After being mixed, one half the resulting volume is removed from the second vessel and transferred to the third vessel. The entire cycle is repeated sufficiently to give a series of concentrations amounting to 500, 250, 125, 63, 31, 16, 8, and 4 ppm, respectively.
# Each vessel is then inoculated with a cell suspension of the ps.fl bacteria. The bacteria were grown on a 1% agar slant tube and incubated for 18-24 hours at 30° C. Thereafter, the tube is washed with four ml of sterile water. This was is diluted to a density of 60 to 80 Nephlolmeter Turbidity Units (NTU). To 100 ml of the SHW containing the various concentrations of the test compound is added 0.75 ml of inoculum from the 60-80 NTU wash with good mixing. After 4 hours from the time of addition at 30° C., 5 μl of solution is transferred to 100 μl of a broth solution in order to recover any living cells. This mixture is incubated for 24 hours at 30° C. before noting the concentration in ppm at which each compound killed >99.999% of the cells in the SHW solution.
# [1] = test system: Pseudomonas fluorescens (Ps.fl); experiment: MIC, broth two-fold serial dilution (Table 3), Ps.fl; format: cell-based; details: read-out: MIC Ps.fl
# Excerpt: (§2) A minimum inhibitory concentration (MIC) value is obtained using a broth, two-fold serial dilution test performed as follows: A stock solution or dispersion of the test compound, typically at a concentration of 1%, is made in a 5:3:2 solvent solution of acetone, methanol, and water. A volume of the stock solution is dispensed into culture media to give an initial starting test concentration of 500 ppm compound.
# as §1, with “done,” for “run,”, “compound free broth.” for “the SHW mixture with the test compound.”, “broth” for “SHW”
# (§3) Each vessel is then inoculated with a cell suspension of the appropriate test organism. Bacteria are grown in broth and fungi on agar slants for a time and at a temperature appropriate to the species being tested. At the end of the growth period, the broth is vortexed to disperse the cells. In the case of fungi, the spores are harvested by pipetting water onto the slant and dislodging the spores with a sterile loop. The cell/spore suspension is standardized by controlling incubation time, temperature, and the volume of the diluent. The suspension is then used to inoculate the vessels containing the broth compound. The vessels are then incubated at the appropriate temperature. After the incubation, the vessels are examined for growth/no growth. The minimum inhibitory concentration (MIC) is defined as the lowest concentration of compound that results in complete inhibition of growth of the test organism.
# Pseudomonas fluorescens (Ps.fl), gram negative
# [2] = test system: Pseudomonas aerugenosa (Ps.ae); experiment: MIC, broth two-fold serial dilution (Table 3), Ps.ae; format: cell-based; details: read-out: MIC Ps.ae
# Excerpt: as §2
# as §1, with “done,” for “run,”, “compound free broth.” for “the SHW mixture with the test compound.”, “broth” for “SHW”
# as §3
# Pseudomonas aerugenosa (Ps.ae), gram negative
# Escherichia coli (E.c) = experiment: MIC, broth two-fold serial dilution (Table 3), E.c; format: cell-based; details: read-out: MIC E.c
# Excerpt: as §2
# as §1, with “done,” for “run,”, “compound free broth.” for “the SHW mixture with the test compound.”, “broth” for “SHW”
# as §3
# Escherichia coli (E.c), gram negative
# [3] = test system: Staphylococcus aureus (S.a); experiment: MIC, broth two-fold serial dilution (Table 3), S.a; format: cell-based; details: read-out: MIC S.a
# Excerpt: as §2
# as §1, with “done,” for “run,”, “compound free broth.” for “the SHW mixture with the test compound.”, “broth” for “SHW”
# as §3
# Staphylococcus aureus (S.a), gram positive
# Aspergillus niger (A.n) = experiment: MIC, broth two-fold serial dilution (Table 3), A.n; format: cell-based; details: read-out: MIC A.n
# Excerpt: as §2
# as §1, with “done,” for “run,”, “compound free broth.” for “the SHW mixture with the test compound.”, “broth” for “SHW”
# as §3
# [4] = test system: Aureobasidium pullulans (A.p); experiment: MIC, broth two-fold serial dilution (Table 3), A.p; format: cell-based; details: read-out: MIC A.p
# Excerpt: as §2
# as §1, with “done,” for “run,”, “compound free broth.” for “the SHW mixture with the test compound.”, “broth” for “SHW”
# as §3
# Aureobasidium pullulans (A.p)
# A.n = experiment: Minimum Inhibitory Concentration Test, alternate (Table 4), A.n; format: cell-based, Aspergillus niger; details: Aspergillus niger, TSB, 72 hours
# Procedure, shortened: (§4)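 Compound in acetone was diluted into TSB and serially diluted 1:1 from 250 ppm down to 0.8 ppm, in duplicate. Plates were inoculated with diluted 24 h culture and incubated 3 days at 30° C; MIC recorded as lowest concentration with no growth.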
# Pseudomonas fluorescens = experiment: Minimum Inhibitory Concentration Test, alternate (Table 4), Ps.fl; format: cell-based; details: Pseudomonas fluorescens, TSB, 72 hours, 30° C
# Procedure, shortened: as §4
# [5] = test system: Pseudoperonospora cubensis; experiment: whole plant or invertebrate; format: in vivo; details: Pseudoperonospora cubensis, in Cucumis sativus, 168 h; read-out: % control CDM
# Piricularia oryzae = experiment: whole plant or invertebrate; format: in vivo; details: Pyricularia oryzae, read-out: % control RB
# Phytophthora infestans = experiment: whole plant or invertebrate; format: in vivo; details: Phytophthora infestans, in Solanum lycopersicum, 96 h, read-out: % control TLB
# [6] = test system: Erysiphe graminis (f. sp. tritici); experiment: whole plant or invertebrate; format: in vivo; details: Blumeria graminis; read-out: % control WPM
# [7] = test system: Puccinia graminis (f. sp. tritici Race 15B-2); experiment: whole plant or invertebrate; format: in vivo; details: 336 h, read-out: % control WSR
# A.p = experiment: Minimum Inhibitory Concentration Test, alternate (Table 4), A.p; format: cell-based; details: Aureobasidium pullulans, TSB, 72 hours
# Protocol: (§5) A 125 μl aliquot of 10,000 ppm test compound in acetone was added to 4.88 ml of TSB to provide a 250 ppm solution. From this solution, 100 μL was transferred to the first row of two microtiter plate columns. Both replicates and five additional compounds were all serially diluted 1:1 to a final concentration of 0.8 ppm in TSB.
# (§6) Inoculation was accomplished by diluting a 24 hr Ps fl culture, four mls per 36 mls of phosphate buffer solution. A Dynatech autoinoculator was used to transfer 1.5 μl of this cell suspension to the microtiter plates. The plates were incubated at 30° C. for 3 days before the lowest concentration at which no growth occurs was recorded in the database. The SOK data and MIC test data on Ps.fl, Ps.ae, E.c, and S.a. bacteria and Candida albicans (C.alb), A.n and A.p fungi are listed in Table 4.
# Candida albicans (C.alb) = experiment: Minimum Inhibitory Concentration Test, alternate (Table 4), C.alb; format: cell-based; details: Candida albicans, TSB, 72 hours
# Protocol: as §5, §6
# E.c = experiment: Minimum Inhibitory Concentration Test, alternate (Table 4), E.c; format: cell-based, Escherichia coli; details: Escherichia coli, TSB, 72 hours
# Protocol: as §5, §6
# Ps.ae = experiment: Minimum Inhibitory Concentration Test, alternate (Table 4), Ps.ae; format: cell-based, Pseudomonas aerugenosa; details: Pseudomonas, TSB, 72 hours
# S.a = experiment: Minimum Inhibitory Concentration Test, alternate (Table 4), S.a; format: cell-based, Staphylococcus aureus; details: Staphylococcus aureus, TSB, 72 hours
# Protocol: as §5, §6
# [8] = test system: Pellicularia filamentosa (f. sp. sasiki); experiment: whole plant or invertebrate; format: in vivo; details: 120 h; read-out: % control RSB
# [9] = test system: Puccinia recondita (f. sp. tritici Races PKB and PLD); experiment: whole plant or invertebrate; format: in vivo; details: Puccinia recondita, 240 h; read-out: % control WLR
# [10] = Table 3, Ps.fl in synthetic hard water, 4 hours, 30° C
# [11] = Table 3, broth two-fold serial dilution
SMILES,MBC (ps.fl bacteria; [10]) [µg/mL],"MIC [1, 11] [µg/mL]",MIC [2] [µg/mL],MIC (Escherichia coli (E.c); [11]) [µg/mL],"MIC [3, 11] [µg/mL]",MIC (Aspergillus niger (A.n)) [µg/mL],"MIC [4, 11] [µg/mL]",MIC (A.n) [µg/mL],MIC (Pseudomonas fluorescens) [µg/mL],pest or weed control at 200 ppm [5] [%],pest or weed control at 200 ppm (Piricularia oryzae) [%],pest or weed control at 200 ppm (Phytophthora infestans) [%],MIC (A.p) [µg/mL],MIC (Candida albicans (C.alb)) [µg/mL],MIC (E.c) [µg/mL],MIC (Ps.ae) [µg/mL],MIC (S.a) [µg/mL],pest or weed control at 300 ppm [8] [%],pest or weed control at 100 ppm (Phytophthora infestans) [%],pest or weed control at 100 ppm [6] [%],also measured
"CCCCCCCCNC(=O)/C=C\SC(C(C)=O)C(C)=O [Example 1, N-n-octyl-cis-3-[3-(2,4-pentanedionyl)thio]acrylamide]",> 500,> 500,< 4,> 500,< 4,8,< 4,> 500,> 500,100,98,100,,,,,,,,,pest or weed control at 300 ppm [6]: 25%; pest or weed control at 100 ppm [7]: 50%
"CCCCCNC(=O)/C=C\SC(C(C)=O)C(C)=O [Example 3, N-n-pentyl-cis-3-[3-(2,4-pentanedionyl)thio]acrylamide]",,,,,,,,31 to 63,> 500,,,,8,31,125 to 250,> 500,125,0,40,0,pest or weed control at 300 ppm [5]: 98%; pest or weed control at 300 ppm (Piricularia oryzae): 0%; pest or weed control at 300 ppm [7]: 60%
"CCCCCCCNC(=O)/C=C\SC(C(C)=O)C(C)=O [Example 4, N-n-heptyl-cis-3-[3-(2,4-pentanedionyl)thio]acrylamide]",,,,,,,,16 to 63,> 500,98,60,100,< 4,< 4,> 500,> 500,63,0,,0,pest or weed control at 300 ppm [7]: 80%
"CCCCCCNC(=O)/C=C\SC(C(C)=O)C(C)=O [Example 5, N-n-hexyl-cis-3-[3-(2,4-pentanedionyl)thio]acrylamide]",,,,,,,,31 to 63,> 500,100,90,95,< 4,16,> 500,> 500,63 to 125,0,,,pest or weed control at 300 ppm [6]: 0%; pest or weed control at 300 ppm [7]: 70%
"CCCCCCCCNC(=O)/C=C\SC(C(=O)NCCCCCCCC)C(=O)OCC (stereo not drawn) [Example 18, N-n-octyl-cis-3-[2-(ethyl-N-n-octylmalonamido)thio]acrylamide]",,,> 500,,,< 4,,> 500,> 500,97,25,92,,,,,,90,,,MBC (ps.fl bacteria; 4 h): 16 µg/mL; MIC [1]: < 4 µg/mL; MIC (Escherichia coli (E.c)): 250 µg/mL; MIC [3]: 8 µg/mL; MIC [4]: < 4 µg/mL; pest or weed control at 200 ppm [6]: 0%; pest or weed control at 200 ppm [9]: 74%
"CCCCCCCCNC(=O)/C=C\SC(C(=O)Nc1cc(C)ccc1Cl)C(=O)OCC (stereo not drawn) [Example 42, N-n-octyl-cis-3-{2-[ethyl-N-(2-chloro-5-methylphenyl)malonamido]thio}acrylamide]",125,8,> 500,500,8,< 4,16,,,,,,,,,,,,91,,
"CCCCCCCCNC(=O)/C=C\SC(C(=O)NCc1cccnc1)C(=O)OCC (stereo not drawn) [Example 49, N-n-octyl-cis-3-{2-[ethyl-N-((3-pyridyl)methyl)malonamido]thio}acrylamide]",> 500,> 500,< 4,> 500,< 4,< 4,< 4,,,,,,,,,,,,90,50,pest or weed control at 100 ppm [5]: 85%; pest or weed control at 100 ppm (Piricularia oryzae): 0%; pest or weed control at 100 ppm [8]: 0%; pest or weed control at 100 ppm [9]: 0%
"CCCCCCCCNC(=O)/C=C\SC(C(=O)OCC)C(=O)c1ccccc1 (stereo not drawn) [Example 69, N-n-octyl-cis-3-[2-(ethoxy-3-phenyl-3-oxopropanoyl)thio]acrylamide]",,,32,,,125,,,,,,,,,,,,,,,MBC (ps.fl bacteria; 4 h): > 500 µg/mL; MIC [1]: > 500 µg/mL; MIC (Escherichia coli (E.c)): 500 µg/mL; MIC [3]: 16 µg/mL; MIC [4]: < 4 µg/mL
